Earlier results as cited in patent US20200129491A1, “METHODS OF TREATING BRAIN TUMORS USING COMBINATION THERAPY” (AGIOS PHARMACEUTICALS, INC., priority 2017, published 2020).
Where two headings read alike, the source gives them in different places.

Assays:
[1] = test system: mutant IDH1 (mIDH1)
[2] = test system: mIDH1-driven gliomas; settings: some model systems; D. Rohle et al. Science 340:626-630 (2013)
[3] = test system: mIDH1 cells; settings: in vitro, mIDH1 glioma models; R. J. Molenaar et al., Cancer Research 75:4790-4802 (2015)
[4] = test system: mutant IDH1 proteins; settings: biochemical assays
[5] = test system: mutant IDH1 proteins; settings: cellular assays

SMILES	Inhibition of mutant IDH1 (mIDH1) [1]	Growth of mIDH1-driven gliomas [2]	Sensitivity of mIDH1 cells to radiation therapy [3]	Inhibition of mutant IDH1 proteins [4]	Inhibition of mutant IDH1 proteins [5]
Cc1ccccc1C(C(=O)NC1CCCCC1)N(C(=O)Cn1ccnc1C)c1cccc(F)c1 (centres unmarked) [AGI-5198]	inhibit	repress growth	desensitized to radiation therapy	–	–
N#Cc1ccnc(N2C(=O)CC[C@H]2C(=O)N(c2cncc(F)c2)[C@H](C(=O)NC2CC(F)(F)C2)c2ccccc2Cl)c1 [Ivosidenib, (S)—N—((S)-1-(2-Chlorophenyl)-2-(3,3-difluorocyclobutylamino)-2-oxoethyl)-1-(4-cyanopyridin-2-yl)-N-(5-fluoropyridin-3-yl)-5-oxopyrrolidine-2-carboxamide]	–	–	–	inhibitor of mutant IDH1 proteins	inhibitor of mutant IDH1 proteins
